The source of these data is ChEMBL document CHEMBL6127072, “PROTAC unleashed: Unveiling the synthetic approaches and potential therapeutic applications” (Eur J Med Chem, 2024).

The EC50 is the midpoint of the concentration-response curve. A low value points to greater potency. The IC50 is the concentration needed to halve the response being measured. Lower therefore signals inhibition by little substance. What is called Emax is the size of the effect at its maximum, as opposed to the concentration needed. For orientation: inhibition means the drop in the measured response relative to a control, in per cent. A lower inhibition goes with little suppression.

The target in one assay is NS3 protease (Hepacivirus C, UniProt C1KIQ2). The assay is described as follows: Inhibition of Hepatitis C virus NS3 protease. Details: species or system Hepacivirus hominis.
Chain of NS3 protease (C1KIQ2 whole entry): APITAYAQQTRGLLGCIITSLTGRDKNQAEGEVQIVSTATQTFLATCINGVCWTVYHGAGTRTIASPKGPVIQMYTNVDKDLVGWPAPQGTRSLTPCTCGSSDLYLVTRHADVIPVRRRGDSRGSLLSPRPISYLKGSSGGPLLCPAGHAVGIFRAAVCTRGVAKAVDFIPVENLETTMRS
In assay [1] the target is Protein cereblon/Leucine-rich repeat serine/threonine-protein kinase 2 (Homo sapiens, UniProt Q5S007+Q96SW2). The assay is described as follows: PROTAC activity at CRBN/LRRK2 in human MOLT-4 cells assessed as induction of protein .degradation incubated for 48 hrs by Western blot analysis. The class given is cell-based. On the technique in general: Immunoblotting shows a protein as a band on a membrane.
Chain of Protein cereblon/Leucine-rich repeat serine/threonine-protein kinase 2 (Q5S007 whole entry): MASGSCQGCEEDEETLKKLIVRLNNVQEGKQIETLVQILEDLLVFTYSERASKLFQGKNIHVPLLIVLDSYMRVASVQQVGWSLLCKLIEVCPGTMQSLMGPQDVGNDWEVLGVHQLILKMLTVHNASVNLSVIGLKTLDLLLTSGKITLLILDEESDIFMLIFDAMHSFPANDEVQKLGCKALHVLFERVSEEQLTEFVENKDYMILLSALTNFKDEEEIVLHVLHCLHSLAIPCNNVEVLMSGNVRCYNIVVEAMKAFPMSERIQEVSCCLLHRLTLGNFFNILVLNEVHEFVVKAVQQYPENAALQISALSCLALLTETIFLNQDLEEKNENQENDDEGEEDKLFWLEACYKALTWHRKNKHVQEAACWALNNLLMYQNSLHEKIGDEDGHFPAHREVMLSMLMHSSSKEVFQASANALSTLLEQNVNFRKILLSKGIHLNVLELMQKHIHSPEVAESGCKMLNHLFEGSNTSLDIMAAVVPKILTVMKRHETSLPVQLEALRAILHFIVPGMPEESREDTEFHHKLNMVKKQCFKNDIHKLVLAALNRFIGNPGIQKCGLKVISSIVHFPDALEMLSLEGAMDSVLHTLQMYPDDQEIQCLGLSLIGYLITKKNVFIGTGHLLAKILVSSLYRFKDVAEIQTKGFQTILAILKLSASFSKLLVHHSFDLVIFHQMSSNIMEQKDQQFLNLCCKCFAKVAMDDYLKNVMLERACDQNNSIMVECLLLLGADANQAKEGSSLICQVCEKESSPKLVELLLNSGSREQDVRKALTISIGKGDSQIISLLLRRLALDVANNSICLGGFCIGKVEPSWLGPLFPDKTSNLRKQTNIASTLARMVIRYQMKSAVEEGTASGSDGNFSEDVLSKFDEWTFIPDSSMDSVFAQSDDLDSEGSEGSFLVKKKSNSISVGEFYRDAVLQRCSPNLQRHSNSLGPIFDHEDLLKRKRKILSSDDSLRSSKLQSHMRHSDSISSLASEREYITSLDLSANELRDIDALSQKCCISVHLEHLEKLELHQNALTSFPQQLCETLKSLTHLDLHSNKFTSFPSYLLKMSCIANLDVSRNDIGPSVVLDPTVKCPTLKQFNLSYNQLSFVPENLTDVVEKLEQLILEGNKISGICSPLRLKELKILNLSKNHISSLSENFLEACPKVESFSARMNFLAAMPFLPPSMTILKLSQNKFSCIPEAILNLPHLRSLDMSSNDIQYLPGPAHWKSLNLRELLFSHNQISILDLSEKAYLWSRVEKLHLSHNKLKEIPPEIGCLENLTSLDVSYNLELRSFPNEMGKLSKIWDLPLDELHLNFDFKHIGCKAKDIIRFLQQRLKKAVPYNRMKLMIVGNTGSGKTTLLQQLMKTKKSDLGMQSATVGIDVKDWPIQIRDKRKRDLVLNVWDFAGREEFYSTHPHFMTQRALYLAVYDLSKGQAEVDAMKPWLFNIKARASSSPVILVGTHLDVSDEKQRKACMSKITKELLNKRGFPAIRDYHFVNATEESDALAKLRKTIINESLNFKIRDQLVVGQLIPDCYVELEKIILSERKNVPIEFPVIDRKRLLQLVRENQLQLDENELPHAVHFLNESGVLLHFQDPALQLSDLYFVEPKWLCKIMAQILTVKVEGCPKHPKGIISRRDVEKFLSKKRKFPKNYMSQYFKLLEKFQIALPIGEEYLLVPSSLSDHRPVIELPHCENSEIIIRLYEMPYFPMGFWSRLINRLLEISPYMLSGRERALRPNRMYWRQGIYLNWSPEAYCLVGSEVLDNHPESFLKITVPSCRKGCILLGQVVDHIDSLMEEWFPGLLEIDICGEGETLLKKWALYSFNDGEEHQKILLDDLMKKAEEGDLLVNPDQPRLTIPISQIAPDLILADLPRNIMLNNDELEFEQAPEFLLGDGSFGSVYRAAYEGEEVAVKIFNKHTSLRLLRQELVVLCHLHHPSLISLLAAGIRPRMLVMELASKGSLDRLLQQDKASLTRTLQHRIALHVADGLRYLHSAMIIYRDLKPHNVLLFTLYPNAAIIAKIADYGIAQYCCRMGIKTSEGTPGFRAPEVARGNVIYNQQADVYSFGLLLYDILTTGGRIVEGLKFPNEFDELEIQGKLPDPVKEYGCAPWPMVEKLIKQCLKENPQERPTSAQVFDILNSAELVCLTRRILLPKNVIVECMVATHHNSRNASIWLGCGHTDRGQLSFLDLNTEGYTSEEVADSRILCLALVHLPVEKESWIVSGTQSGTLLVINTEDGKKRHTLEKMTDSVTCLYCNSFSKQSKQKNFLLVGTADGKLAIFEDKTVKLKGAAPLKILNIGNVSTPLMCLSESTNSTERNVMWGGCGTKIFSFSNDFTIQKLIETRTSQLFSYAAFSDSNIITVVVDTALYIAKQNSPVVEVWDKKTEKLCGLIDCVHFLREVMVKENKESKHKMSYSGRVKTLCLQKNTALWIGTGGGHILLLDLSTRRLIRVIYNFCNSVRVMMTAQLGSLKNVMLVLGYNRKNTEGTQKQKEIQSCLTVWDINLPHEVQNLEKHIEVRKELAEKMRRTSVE
Chain of Protein cereblon/Leucine-rich repeat serine/threonine-protein kinase 2 (Q96SW2 whole entry): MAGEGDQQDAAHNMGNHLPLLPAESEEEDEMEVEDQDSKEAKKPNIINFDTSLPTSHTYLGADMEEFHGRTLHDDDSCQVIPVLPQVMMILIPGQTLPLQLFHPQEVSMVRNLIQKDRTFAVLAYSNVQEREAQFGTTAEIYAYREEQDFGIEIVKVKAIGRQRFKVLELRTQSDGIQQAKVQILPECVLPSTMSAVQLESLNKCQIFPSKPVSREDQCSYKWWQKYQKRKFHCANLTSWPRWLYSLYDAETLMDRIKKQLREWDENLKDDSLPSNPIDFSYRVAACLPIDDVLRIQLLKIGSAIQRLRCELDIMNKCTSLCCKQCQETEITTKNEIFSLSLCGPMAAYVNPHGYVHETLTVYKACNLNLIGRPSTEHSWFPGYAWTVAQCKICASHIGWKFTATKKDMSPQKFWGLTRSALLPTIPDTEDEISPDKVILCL

Assay [2] deals with T1, 3-hydroxy-3-methylglutaryl-coenzyme A reductase (Homo sapiens, UniProt P04035).
T1 sequence (P04035 whole entry): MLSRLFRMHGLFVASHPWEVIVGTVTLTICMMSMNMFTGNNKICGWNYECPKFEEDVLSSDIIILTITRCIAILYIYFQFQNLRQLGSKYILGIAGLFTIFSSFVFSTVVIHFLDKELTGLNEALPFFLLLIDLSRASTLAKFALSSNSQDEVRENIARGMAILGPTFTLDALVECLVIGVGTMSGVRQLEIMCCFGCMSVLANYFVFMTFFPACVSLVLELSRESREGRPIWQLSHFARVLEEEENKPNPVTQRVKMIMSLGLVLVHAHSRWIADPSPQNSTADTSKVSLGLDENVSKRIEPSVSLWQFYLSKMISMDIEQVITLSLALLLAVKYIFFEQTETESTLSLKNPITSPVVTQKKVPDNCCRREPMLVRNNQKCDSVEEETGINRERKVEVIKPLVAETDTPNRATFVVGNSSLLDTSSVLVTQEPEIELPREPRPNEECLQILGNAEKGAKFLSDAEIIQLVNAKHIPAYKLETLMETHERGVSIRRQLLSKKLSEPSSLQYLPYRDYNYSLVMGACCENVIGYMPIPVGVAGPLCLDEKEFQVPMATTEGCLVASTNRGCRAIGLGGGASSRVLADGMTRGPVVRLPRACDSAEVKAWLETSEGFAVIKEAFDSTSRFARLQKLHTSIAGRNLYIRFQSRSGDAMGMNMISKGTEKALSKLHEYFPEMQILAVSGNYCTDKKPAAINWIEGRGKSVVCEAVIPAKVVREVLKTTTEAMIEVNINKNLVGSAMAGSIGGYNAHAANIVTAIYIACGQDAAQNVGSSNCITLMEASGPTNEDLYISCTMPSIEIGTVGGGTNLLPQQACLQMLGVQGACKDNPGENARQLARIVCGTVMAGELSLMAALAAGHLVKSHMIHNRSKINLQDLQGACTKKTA
Nature of the assay: Inhibition of HMG-CoA Reductase (unknown origin).

Assay [3] deals with T2, Protein cereblon/Bromodomain-containing protein 4 (Homo sapiens, UniProt O60885+Q96SW2). The assay is described as follows: PROTAC activity at CRBN/BRD4 in human MV4-11 cells assessed as induction of degradation of BRD4. The class given is cell-based.
T2 sequence (Q96SW2 whole entry, looked up, other chains not shown): as the sequence (Q96SW2 whole entry) above
For assay [4], the target named is Replicase polyprotein 1ab (Severe acute respiratory syndrome coronavirus 2, UniProt P0DTD1). The assay is described as follows: Inhibition of SARS CoV-2 MPro.
The target of assay [5] is T2, Protein cereblon/Bromodomain-containing protein 4. Nature of the assay: PROTAC activity at CRBN/BRD4 in human MV4-11 cells assessed as induction of degradation of BRD4 measured after 24 hrs by Western blot analysis. The class given is cell-based.
The target is the same in assay [6]. Nature of the assay: PROTAC activity at CRBN/BRD4 in human MV4-11 cells assessed as maximal degradation at 1 uM incubated for 30 mins by Western blot analysis relative to control. The class given is cell-based.
Assay [7] concerns the target T3, 3-hydroxy-3-methylglutaryl-coenzyme A reductase (Homo sapiens) (UniProt P04035).
T3 sequence (whole entry): T1 sequence (P04035 whole entry)
Nature of the assay: Inhibition of HMG-CoA reductase (unknown origin) at 10 uM relative to control.

Assay [8] has as its target Protein cereblon/Microtubule-associated protein tau (Homo sapiens, UniProt P10636+Q96SW2). The assay is described as follows: PROTAC activity at CRBN/tau in HEK293T cells measured for 48 hrs by immunoblot analysis. The class given is cell-based.
Assay [9] concerns the target Protein cereblon/Androgen receptor (Homo sapiens, UniProt P10275+Q96SW2). The assay is described as follows: PROTAC activity at AR/CRBN in human A549 cells assessed as induction of androgen receptor degradation measured after 1 hr by Western blot analysis. The class given is cell-based.

Chain of Protein cereblon/Microtubule-associated protein tau (P10636 whole entry): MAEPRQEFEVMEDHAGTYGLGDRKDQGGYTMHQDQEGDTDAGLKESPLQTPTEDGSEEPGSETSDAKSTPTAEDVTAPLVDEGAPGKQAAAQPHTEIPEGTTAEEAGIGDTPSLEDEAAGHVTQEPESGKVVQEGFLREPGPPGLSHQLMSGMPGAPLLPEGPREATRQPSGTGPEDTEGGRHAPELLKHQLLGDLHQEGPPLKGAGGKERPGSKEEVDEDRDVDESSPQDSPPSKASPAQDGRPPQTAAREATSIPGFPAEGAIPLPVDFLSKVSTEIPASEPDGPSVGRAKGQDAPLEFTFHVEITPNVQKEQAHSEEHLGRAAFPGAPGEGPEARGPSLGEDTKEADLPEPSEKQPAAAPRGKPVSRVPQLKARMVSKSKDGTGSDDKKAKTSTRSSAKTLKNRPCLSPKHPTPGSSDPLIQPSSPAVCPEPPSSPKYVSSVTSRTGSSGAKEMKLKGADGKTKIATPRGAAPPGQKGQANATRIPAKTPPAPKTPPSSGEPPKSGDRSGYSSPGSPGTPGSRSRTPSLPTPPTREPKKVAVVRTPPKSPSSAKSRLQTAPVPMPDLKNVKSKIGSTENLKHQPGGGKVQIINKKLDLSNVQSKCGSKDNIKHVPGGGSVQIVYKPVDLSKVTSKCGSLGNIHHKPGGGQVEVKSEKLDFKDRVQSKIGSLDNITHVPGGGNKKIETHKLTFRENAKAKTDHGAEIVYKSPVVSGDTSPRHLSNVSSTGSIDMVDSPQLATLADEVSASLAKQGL
Chain of Protein cereblon/Microtubule-associated protein tau (Q96SW2 whole entry): as the sequence (Q96SW2 whole entry) above
Chain of Protein cereblon/Androgen receptor (P10275 whole entry): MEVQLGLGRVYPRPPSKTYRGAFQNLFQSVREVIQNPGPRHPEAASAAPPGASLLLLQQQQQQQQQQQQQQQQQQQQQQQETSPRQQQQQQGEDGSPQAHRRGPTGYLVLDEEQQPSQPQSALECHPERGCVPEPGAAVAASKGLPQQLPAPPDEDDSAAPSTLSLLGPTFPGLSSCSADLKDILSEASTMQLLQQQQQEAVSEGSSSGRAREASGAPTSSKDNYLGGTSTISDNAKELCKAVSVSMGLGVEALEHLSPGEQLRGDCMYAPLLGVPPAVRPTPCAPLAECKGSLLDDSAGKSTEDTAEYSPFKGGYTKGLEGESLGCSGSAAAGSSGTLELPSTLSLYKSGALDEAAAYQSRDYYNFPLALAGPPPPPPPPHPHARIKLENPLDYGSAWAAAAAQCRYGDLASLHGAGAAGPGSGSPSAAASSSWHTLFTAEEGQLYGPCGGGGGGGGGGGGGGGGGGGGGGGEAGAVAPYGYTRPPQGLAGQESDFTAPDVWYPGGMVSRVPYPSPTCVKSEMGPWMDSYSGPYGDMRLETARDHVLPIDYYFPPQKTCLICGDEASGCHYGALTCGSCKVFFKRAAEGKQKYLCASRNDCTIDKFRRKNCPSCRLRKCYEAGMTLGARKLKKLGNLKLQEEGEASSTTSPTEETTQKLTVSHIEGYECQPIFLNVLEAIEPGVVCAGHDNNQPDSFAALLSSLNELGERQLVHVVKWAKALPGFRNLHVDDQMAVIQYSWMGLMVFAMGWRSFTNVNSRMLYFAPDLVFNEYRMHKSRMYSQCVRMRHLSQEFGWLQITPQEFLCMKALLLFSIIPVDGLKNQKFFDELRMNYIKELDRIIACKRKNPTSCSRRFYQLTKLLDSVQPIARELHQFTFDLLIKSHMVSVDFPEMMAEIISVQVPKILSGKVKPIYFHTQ
Chain of Protein cereblon/Androgen receptor (Q96SW2 whole entry): as the sequence (Q96SW2 whole entry) above

At NS3 protease, `CCC[C@H](NC(=O)[C@H]1N(C(=O)[C@@H](NC(=O)[C@@H](NC(=O)c2cnc(CC(=O)NCCOCCOCCOc3cc4c5c(cccc5c3)C(=O)N(C3CCC(=O)NC3=O)C4=O)cn2)C2CCCCC2)C(C)(C)C)C[C@]2(C)CCC[C@]12C)C(=O)C(=O)NC1CC1` (stereo partly specified) displayed an EC50 of 50 nM.
Consider `CC(C)C[C@H](CCOCCOCCOCCNc1ccc(-c2cc(-c3cccc(Br)c3)[nH]n2)cc1)NC(=O)[C@H](O)[C@@H](N)Cc1ccccc1`, for which the DC50 in assay [1] amounted to 5040 nM.
`Cc1ncsc1-c1ccc(CNC(=O)[C@@H]2C[C@@H](O)CN2C(=O)[C@@H](NC(=O)CCCCCCCCCCNC(=O)O[C@@H]2C[C@H](C)C=C3C=C[C@@H](C)[C@@H](CC[C@@H](O)C[C@@H](C)CC(=O)O)[C@@H]32)C(C)(C)C)cc1`: half-maximal inhibition in assay [2] (IC50) was put at 120 nM.
On to `Cc1cc(-c2cc(NC(=O)CCC(=O)NCCOCCOCCNc3ccc4c(c3)C(=O)N(C3CCC(=O)NC3=O)C4=O)ccc2Oc2ccccc2)n2cc[nH]c(=O)c12` (stereo unspecified), for which, in assay [3], the DC50 turned out to be 0.75 nM.
Regarding `C[C@@H](OC(C)(C)C)[C@H](NC(=O)OCc1cccc(OCCCCCOc2cccc3c2C(=O)N(C2CCC(=O)NC2=O)C3=O)c1)C(=O)N[C@H](CN[C@H](C=O)C[C@@H]1CCNC1=O)CC1CCCCC1` (stereo partly specified), the EC50 in assay [4] stood at 290 nM. This counts as sub-micromolar.
For the molecule `Cc1ncsc1-c1ccc(CNC(=O)[C@@H]2C[C@@H](O)CN2C(=O)[C@@H](NC(=O)CCOCCOCCOCCNC(=O)[C@]23CCC(C)(C)C[C@H]2[C@H]2CC[C@@H]4[C@@]5(C)CC[C@H](O)C(C)(C)[C@@H]5CC[C@@]4(C)[C@]2(C)CC3)C(C)(C)C)cc1`, the IC50 in assay [4] is 1140 nM.
For the molecule `Cc1sc2c(c1C)C(c1ccc(Cl)cc1)=N[C@@H](CC(=O)NCCCCCNCCOc1ccc(C3CC(=O)NC(=O)C3)cc1)c1nnc(C)n1-2`, in [5], the DC50 was less than 1 nM. For the same molecule, the Emax in assay [6] was 99%.
The molecule `Cc1ncsc1-c1ccc(CNC(=O)[C@@H]2C[C@@H](O)CN2C(=O)[C@@H](NC(=O)CCCCCCCCCCNC(=O)O[C@@H]2C[C@H](C)C=C3C=C[C@@H](C)[C@@H](CC[C@@H]4C[C@@H](O)CC(=O)O4)[C@@H]32)C(C)(C)C)cc1` came in with an inhibition in assay [7] of 56%.
As to `O=C(CCc1ccc2[nH]c3ccncc3c2c1)NCCOCCCOCCNc1cccc2c1C(=O)N(C1CCC(=O)NC1=O)C2=O` (stereo unspecified), the DC50 in assay [8] came out at 75 nM.
Take `CC1(C)C(=O)N(c2ccc(C#N)c(C(F)(F)F)c2)C(=O)N1c1ccc(-c2ccc(O[C@@H]3CCN(C(=O)C4CCN(c5ccc6c(c5)C(=O)N(C5CCC(=O)NC5=O)C6=O)CC4)C3)cc2)cc1` (stereo partly specified): in [9], the DC50 was determined as 75 nM.
